{"source": "patent US20200383985A1", "about": "“Inhibitors of Protease Activated Receptor-2” (Endosome Therapeutics, Inc., priority 2017, published 2020)", "format_in_all_cases": "cell-based", "key": {"[1]": {"tested_on": "mouse DRG neurons", "assay": "Patch clamp rheobase of DRG neurons: protease-induced hyperexcitability of nociceptors"}, "[2]": {"tested_on": "mouse DRG neurons", "assay": "Patch clamp rheobase of DRG neurons: IBS-D biopsy supernatant-induced hyperexcitability", "procedure": "An investigation as whether proteases from mucosal biopsies of IBS patients cause a persistent hyperexcitability of nociceptors was conducted by a mechanism that entails endosomal signaling of PAR2. Biopsies of colonic mucosa from patients with diarrhea-predominant IBS (IBS-D) or healthy control (HC) subjects were placed in culture medium (24 h, 37° C.). Mouse DRG neurons were then exposed to biopsy supernatants (30 min, 37° C.) and washed. Rheobase was measured 30 min after washing to assess persistent hyperexcitability. Supernatants of biopsies from IBS-D patients caused a persistent decrease in rheobase, consistent with hyperexcitability, when compared to supernatants from HC subjects (rheobase at 30 min: HC, 78.33±4.41 pA, 12 neurons, supernatant from 4 HC; IBS-D, 54.55±4.74 pA, 11 neurons, supernatant from 4 IBS-D; P<0.05; ANOVA, Tukey's multiple comparisons test) (FIG. 6A, B). I-343 (10 μM), Dy4 (dynamin inhibitor, 30 μM) and PD98059 (MEK1 inhibitor, 50 μM) abolished IBS-D-induced hyperexcitability of nociceptors (FIG. 6A-D).\nThe Queen's University Human Ethics Committee approved human studies. All subjects gave informed consent. Endoscopic biopsies were obtained from the descending colon of 13 adult IBS-D patients (12 female) diagnosed using ROME III criteria for diarrhea predominant IBS and of 12 health controls. All IBS patients had symptoms greater than 1 year and most were greater than 5 years. Celiac disease was excluded by blood test and patients over 40 years with daily diarrhea were biopsied at the time of colonoscopy to exclude microscopic colitis. […] Biopsies (8 samples per patient) were incubated in 250 μl of RPMI medium containing 10% fetal calf serum, penicillin/streptomycin and gentamicin/amphotericin B (95% O2/5% […], 24 h, 37° C.). Supernatants were stored at −80° C. Supernatants from 4-6 patients were pooled and studied in individual experiments.\nDRG innervating the colon (T9-T13) were collected from C57BL/6 mice. Ganglia were digested by incubation in collagenase IV (1 mg/ml, Worthington) and dispase (4 mg/ml, Roche) (10 min, 37° C.). DRG were triturated with a fire-polished Pasteur pipette, and further digested (5 min, 37° C.). Neurons were washed, plated onto laminin- (0.017 mg/ml) and poly-D-lysine- (2 mg/ml) coated glass coverslips, and were maintained in F12 medium containing 10% fetal calf serum, penicillin and streptomycin (95% air, 5% CO2, 16 h, 37° C.) until retrieval for electrophysiological studies.\nSmall-diameter (<30 pF capacitance) neurons were studied because they display characteristics of nociceptors (Valdez-Morales E. E. et al., Am J Gastroenterol 2013, 108(10): 1634-1643). Changes in excitability were quantified by measuring rheobase. Whole-cell perforated patch-clamp recordings were made using Amphotericin B (240 μg/ml, Sigma Aldrich) in current clamp mode at room temperature. The recording chamber was perfused with external solution at 2 ml/min. Recordings were made using Multiclamp 700B or Axopatch 200B amplifiers, digitized by Digidata 1440A or 1322A, and processed using pClamp 10.1 software (Molecular Devices). Solutions had the composition (mM): pipette—K-gluconate 110, KC130, HEPES 10, MgCl2 1, CaCl2 2; pH 7.25 with 1 M KOH; external—NaCl 140, KCl 5 HEPES 10, glucose 10, MgCl2 1, CaCl2 2; pH to 7.3-7.4 with 3 M NaOH. […] Neurons were also preincubated with trypsin (50 nM, 10 min), NE (390 nM, 30 min), CS (500 nM, 60 min), or vehicle (37° C.), and washed. Rheobase was measured at T 0 or T 30 min after washing. To investigate mechanisms of protease-evoked effects, neurons were incubated with I-343 (100 nM, 300 nM, 10 μM, 30 min preincubation), SCH79797 (1 μM, 10 min), Dy4 (30 μM, 30 min), PS2 (15 μM, 30 min), PD98059 (50 μM, 30 min), GF109203X (10 μM, 30 min), or vehicle (preincubation and inclusion throughout). In experiments using the tripartite antagonist, neurons were preincubated with Compound 10 (30 μM, 60 min, 37° C.) or vehicle and washed. […]"}, "[3]": {"target": "T1, PAR2 (Homo sapiens, UniProt P55085)", "T1 construct": "HT-29 cells and HEK293 cells, which express endogenous PAR2; endogenous in cells; host or cells: HT-29", "T1 sequence (P55085 26-397)": "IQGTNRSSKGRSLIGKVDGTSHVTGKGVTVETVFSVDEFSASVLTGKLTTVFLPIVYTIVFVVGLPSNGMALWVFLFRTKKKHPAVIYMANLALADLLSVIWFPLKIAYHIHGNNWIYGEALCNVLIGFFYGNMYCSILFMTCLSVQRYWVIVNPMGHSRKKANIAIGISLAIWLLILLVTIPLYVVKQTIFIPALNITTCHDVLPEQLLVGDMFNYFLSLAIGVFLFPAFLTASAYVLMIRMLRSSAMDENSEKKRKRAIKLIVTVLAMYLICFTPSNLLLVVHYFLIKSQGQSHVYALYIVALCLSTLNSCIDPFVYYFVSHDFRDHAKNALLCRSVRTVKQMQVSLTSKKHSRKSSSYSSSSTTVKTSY", "assay": "IP1 accumulation assay in HT-29 cells (endogenous PAR2)", "details": "2F (300 nM)-induced IP1, HT-29 cells", "procedure": "(§1) KNRK-hPAR2, KNRK or HT-29 cells were seeded at a density of 50×10^3 cells/well in a clear poly-d-lysine coated 96 well tissue culture plate. Following 24 h incubation at 37° C. and 5% CO2, media was removed and replaced with 80 μl IP1 stimulation buffer (10 mM HEPES, 1 mM CaCl2, 0.5 mM MgCl2, 4.2 mM KCl, 146 mM NaCl, 5.5 mM glucose, 50 mM LiCl). Following stimulation buffer addition, the wells received 10 μl of 10× antagonists or DMSO vehicle. All plates were further incubated at 37° C., 5% CO2 for 30 min. 10 μl of 2F or ATP was added to the plates and further incubated for 40 min. Following incubation, stimulation buffer was quickly removed by aspiration and replaced with 25 μl lysis buffer (IP-One HTRF® assay kit, Cisbio). Following incubation of the lysates at 37° C., 5% CO2 for 10′, 10 μl lysate was transferred to a 384-well OptiPlate (PerkinElmer) and detected using the IP-One HTRF® assay kit (Cisbio).\n(§2) Compounds of the invention (added at 10×concentrations in a 10 μL volume) were incubated for 30 min prior to the addition of 10 μM ATP or 100 nM or 300 nM PAR2 agonist (2F; EC80, added at 10×concentrations in a 10 μL volume) and then further incubated for 40 min. After lysis, the inositol phosphate 1 was quantified with IP-One HTRF® assay kit, Cisbio. The data was analysed with Prism, GraphPad to calculate the IC50 values, shown below in Table 1.\n(§3) Inhibition of PAR2 signaling with known PAR2 inhibitor I-343 (FIG. 14A) was investigated in HT-29 cells and HEK293 cells, which express endogenous PAR2, and in KNRK cells expressing human (h) PAR2. Accumulation of inositol phosphate-1 (IP1) was measured in response to the PAR2-selective agonist 2-Furoyl-LIGRLO-NH2 (2F), an analogue of the trypsin-exposed tethered ligand, or trypsin.\n(§4) KNRK-hPAR2, KNRK, HEK293, or HT-29 cells were seeded at a density of 50×10^3 cells/well onto clear 96-well plates (PerkinElmer). After 24 h of culture, medium was replaced with IP1 stimulation buffer (10 mM HEPES, 1 mM CaCl2, 0.5 mM MgCl2, 4.2 mM KCl, 146 mM NaCl, 5.5 mM glucose, 50 mM LiCl; 37° C., 5% CO2.). Cells were pre-incubated with the antagonist or vehicle for 30 min prior to the addition of agonist. Cells were then further incubated for 40 min. Stimulation buffer was […]"}, "[4]": {"target": "T2, human (h) PAR2 (Homo sapiens, UniProt P55085)", "T2 construct": "expressed in transfected cells; host or cells: KNRK cells (KNRK-hPAR2)", "T2 sequence (P55085 26-397)": "T1 sequence (P55085 26-397)", "assay": "IP1 accumulation assay in KNRK-hPAR2 cells", "details": "100 nM 2F; 30 μM of antagonist; read-out: KNRK-PAR2 100 nM 2F: ND (inhibition of 2F at 30 μM of antagonist)", "procedure": "as §1, §2, §3, §4"}}, "note": "Where two headings read alike, the source gives them in different places.", "data": [{"molecule": "CC(C)CCCC(C)[C@H]1CCC2C3CCC4C[C@@H](OC(=O)CC(NC(=O)CCOCCOCCOCCOCCOCCOCCOCCOCCOCCOCCOCCOCCNC(=O)Cn5cc(C(=O)N6CCN(C(=O)c7cn8nc(-c9ccc(F)cc9)cc(C(C)(C)C)c8n7)C(C)(C)C6)nn5)C(N)=O)CC[C@]4(C)C3CC[C@@]21C", "note": "(stereo in doubt) [Compound 10, (3S,10S,13R,17R)-10,13-dimethyl-17-((R)-6-methylheptan-2-yl)hexadecahydro-1H-cyclopenta[a]phenanthren-3-yl (44S)-1-(4-(4-(8-(tert-butyl)-6-(4-fluorophenyl)imidazo[1,2-b]pyridazine-2-carbonyl)-3,3-dimethylpiperazine-1-carbonyl)-1H-1,2,3-triazol-1-yl)-44-carbamoyl-2,42-dioxo-6,9,12,15,18,21,24,27,30,33,36,39-dodecaoxa-3,43-diazahexatetracontan-46-oate]", "values": [{"measurement": "baseline rheobase", "setting": "[1]", "value": "no effect"}, {"measurement": "initial excitability at 0 min after trypsin", "setting": "[1]", "value": "did not affect"}, {"measurement": "persistent response at 30 min after trypsin", "setting": "[1]", "value": "prevented"}, {"measurement": "excitability of neurons treated with HC supernatant", "setting": "[2]", "value": "did not affect"}, {"measurement": "rheobase at 30 min, IBS-D supernatant", "setting": "[2]", "value": "64.7±3.84", "unit": "pA"}, {"measurement": "persistent actions of IBS-D supernatant on nociceptor excitability", "setting": "[2]; 30 μM, 60 min preincubation, washed", "value": "completely prevented"}, {"measurement": "IC50", "setting": "[3]; read-out: HT-29 300 nM 2F (IC50)", "value": 670, "unit": "nM"}, {"measurement": "IC50", "setting": "[3]; read-out: HT-29 300 nM 2F pIC50 ± SEM (converted)", "value": 661, "unit": "nM"}, {"measurement": "inhibition at 30 µM", "setting": "[4]", "value": "< 50", "unit": "%"}]}]}
